For experiment [1], the system named is P. aeruginosa ATCC 27853 (APAE001). As to the kind of experiment: MIC assay, CLSI broth microdilution, APAE001. The class given is cell-based. The following applies: Pseudomonas aeruginosa; APAE001 is ATCC27853; Mueller Hinton Broth, 35 C, 20 hours. The protocol: (§1) Minimum inhibitory concentrations (MIC) were determined by reference Clinical and Laboratory Standards Institute (CLSI) broth microdilution methods per M7-A7 [2006]. Quality control ranges utilizing E. coli ATCC 25922, P. aeruginosa ATCC 27853 and S. aureus ATCC 29213, and interpretive criteria for comparator agents were as published in CLSI M100-S17 [2007]. Briefly, serial two-fold dilutions of the test compounds were prepared at 2× concentration in Mueller Hinton Broth. The compound dilutions were mixed in 96-well assay plates in a 1:1 ratio with bacterial inoculum. The inoculum was prepared by suspension of a colony from an agar plate that was prepared the previous day. Bacteria were suspended in sterile saline and added to each assay plate to obtain a final concentration of 5×10^5 CFU/mL. The plates were incubated at 35 C. for 20 hours in ambient air.
For orientation: Broth dilution looks for growth in wells or tubes with falling amounts of substance.

The test system of experiment [2] is E. coli ATCC 25922 (AECO001). As to the kind of experiment: MIC assay, CLSI broth microdilution, AECO001. Format: cell-based. The following applies: Escherichia coli; AECO001 is ATCC25922; Mueller Hinton Broth, 35 C, 20 hours. How it is done:
as §1

Values after ≈ are worked out from the molar mass of the structure shown.

In general, MIC refers to the lowest concentration that inhibits growth of the organism. Regarding `NCC[C@H](O)C(=O)N[C@@H]1C[C@H](N)[C@@H](O[C@H]2O[C@H](CNCCO)C=C[C@H]2N)[C@H](O[C@@H]2O[C@H](CO)[C@@H](O[C@H]3O[C@@H](CN)[C@@H](O)[C@H](O)[C@H]3N)[C@H]2O)[C@H]1O` [1/20], the MIC in experiment [1] is 1 to 16 µg/mL (≈ 1.38 to 22 µM); in experiment [2] it was at most 1 µg/mL.

(Values after patent US8367625B2, “Antibacterial aminoglycoside analogs” (Achaogen, Inc., priority 2008, dated 2013).)
